In one experiment the test system is bone resorption. Conditions: both in vitro and in vivo; cited from earlier work.
Another experiment concerns serum nanobacteria. Put plainly: Antibiotic sensitivity test of serum nanobacteria (cell culture antibiotics). It counts as cell-based. Conditions: 100 μg/ml, cultured one month in medium containing 10% fetal bovine serum. As for the experimental part: Nanobacteria were cultured with 10% fetal bovine serum in DMEM medium (serum nanobacteria) for one month at 37° C. in an atmosphere of 5% CO2-95% air. The cultures were harvested by centrifugation. For the autoclaving, UV, microwave, heating and drying treatments, the harvested nanobacteria were suspended in phosphate buffered saline (pH 7.4; PBS). After treatments, subculturing of the nanobacteria was made in 10% gamma irradiated fetal bovine serum in DMEM medium. The growth of serum nanobacteria was followed by light microscopy and absorbance measurement with a spectrophotometer at 650 nm.
The 1× concentrations are those recommended for cell culture. After 10 days culture in 10% serum containing DMEM with the antibiotic, growth was compared to that of nanobacteria cultures without antibiotics present.

Another experiment relates to nanobacteria. Kind of experiment: Antibiotic susceptibility of nanobacteria, Minimal Inhibition Concentration (MIC) in 96-well plates. The format is cell-based. As for the experimental part:
Antibiotic sensitivity tests were carried out by measuring Minimal Inhibition Concentration (MIC), a common practice in clinical microbiology.
The tests were performed in 96-well plates. DMEM (commercial cell culture medium) containing 10% gamma-irradiated fetal bovine serum (FBS)(dose about 3 Mrads; this treatment inactivates nanobacteria in the serum so that the basic medium is sterile) was used as the basic culture medium. These components are commercially available, e.g., from Gibco. The antibiotic stock solutions were sterile filtered through 0.2 micrometer filters. The stock solutions were then serially diluted (into the basal culture medium) to provide a final starting concentration of 0.5 mg/ml and 1:2 dilutions therefrom, unless otherwise specified. For each antibiotic three parallel tests were performed using all the antibiotic dilutions and, additionally, positive and negative control experiments. […] 100 μl of dilutions of the nanobacteria inoculum were added to all wells except the negative controls. The plates were incubated at mammalian cell culture conditions (37° Celsius, 5% carbon dioxide, 95% humid air). The absorbance values at 650 nm were recorded by using an ELISA reader at the start, and at 4, 8, 12, 14 days. […] Calculations were based on absorbance curves where absorbance was plotted against concentration of the antibiotic.

Turning to `NCCCC(O)(P(=O)(O)O)P(=O)(O)O` [alendronate], in the experiment with bone resorption, the “Potency relative to etidronate” value was “approximately 700 fold”. Turning to Gentamycin, the “Morphology of nanobacteria in SEM” value with serum nanobacteria is recorded as “changes in the morphology”. Further, the “Kind of antinanobacterial effect in the in vitro test (in words)” value with nanobacteria is given as “bacteriostatic effects at high antibiotic concentrations”.

Values taken from patent US20050036904A1, “Methods for eradication of nanobacteria” (priority 1998, published 2005).
